The results in this text go back to US7037663B2, “Human zona pellucida protein 3 and uses thereof” (Eastern Virginia Medical School, priority 1998, dated 2006).

Data set [1] has as its system human sperm. The data set is described as follows: Acrosome reaction of capacitated sperm by FITC/PSA with Hoechst 33258 viability stain, first series. The class given is cell-based. The note with it: NT 30 ng/ml, calcium ionophore 5 μM, rhZP3 30 ng/ml, solubilized zona 0.5 ZP/μl, mean (± SEM). On the procedure:
The purified rhZP3 was also applied to test its activity to induce human sperm acrosome reaction. The motile sperm obtained by swim-up procedure were allowed to capacitate in HTF/0.5% HSA for four hours at 37° C. in 5% CO2 in huminified air. The motile sperm concentration used to detect acrosome reaction was set at 2 million/ml. A series of 100 ul of capacitated sperm aliquots with different inducers were prepared in Eppendorf vials and cultured in the incubator in 95% air, 5% CO2, at 37° C. for 30 minutes. The test was conducted as follows: positive control: calcium ionophore A23187 (Sigma) at 5 μM; negative controls: 1) sperm culture medium alone, and 2) protein isolated from the culture media of non-transfected PA-1 cells (NT); test: rhZP3. Triple slides were made for each assay. Hoechst 33258 stain was used for determination of sperm viability. Fluorescein isothiocyanate conjugated Pisum sativum agglutinin (FITC/PSA) (Sigma) staining technique was employed to evaluate the acrosome reaction (Cross et al, 1986). Blind reading was required for evaluation and at least 100˜200 cells from 5 random fields were evaluated per spot on the slide. […] The results were expressed as percentage of acrosome-reacted spermatozoa in the total population counted (Cross, 1986).
In some experiments, Solubilized zona pellucida were used as control to test its function to induce sperm acrosome reaction. The solubilized zona pellucida were prepared according to Franken et al (1996). Ooplasma was removed using a small glass micropipette. A vigorous pipetting action would break their zona causing ooplasma to be spilled into surrounding medium. The chosen amount of zonae was transferred into an eppendorf tube and was centrifuged for 15 minutes at 300×g. Using a steromicroscope, the media were removed with pipette, making sure not to disturb zona. The final result was to remove maximum medium. A chosen volume (depending on the zona concentration needed) of 10 mM HCl was added. Under the microscopic vision, zona/HCl was pipetted up and down until all zona were dissolved. Then 10 mM NaOH of equal volume as the HCl was added and mixed well to obtain the stock zona solution.

Data set [2] concerns human sperm. Description: Acrosome reaction of live sperm by FITC-PSA, second series. The class given is cell-based. The note with it: A23187 5 μM. On the procedure: Determination of the acrosome reaction—The proportion of live acrosome-reacted spermatozoa incubated under capacitating conditions was determined with the fluorescent probe fluorescein isothiocyanate-labeled Pisum Sativum Agglutinin (FITC-PSA, Sigma) after staining with a supravital stain (Hoechst 33258, Sigma) following established techniques (12,13). At least 200 sperm per sample were evaluated in duplicate at 600× magnification using an epifluorescence microscope equipped with phase-contrast optics (Optiphot; Nikon, Melville, N.Y.). Slides were coded and read in a blind fashion.
A calcium ionophore agent (A23187, Sigma) tested at 5 μM and human acid solubilized zona pellucida tested at a final concentration of 4 zona/10 μl were used as positive controls (20). In further experiments, the acrosomal status was assessed by transmission electron microscopy. Spermatozoa were fixed by mixing sperm suspensions with equal volumes of 2% (v/v) glutaraldehyde (in 3 mM CaCl2 and 0.1 M sodium cacodylate); thereafter, samples were dehydrated twice and prepared for thin sectioning using previously published procedures. Ultrastructural examination was performed with a transmission electron microscope (Jeol JEM-1200 EX II, Peabody, Mass.).
Experiment 2: Characterization of the acrosome reaction inducing activity of the rhZP3 in dose- and sperm capacitation-dependency studies—Motile sperm fractions from 29 ejaculates of 11 different donors were incubated under capacitating conditions for 3 hours and assayed for acrosome reaction using FITC-PSA. Following swim-up, sperm aliquots were pre-incubated for 30 minutes with rhZP3 (30 ng/ml), A23187 (positive control), culture medium from non-transfected PA-cells (NT) or sperm culture medium (negative controls). This was the initially selected dose of rhZP3 to be tested as it had proven to effect significant inhibition of sperm-zona binding in the HZA.
The dose-dependent effect of rhZP3 on acrosome reaction was examined in the swim-up fractions obtained from four different donors. The fractions were capacitated for 3 hours and exposed for 30 min to rhZP3 at final concentrations of 0, 7.5, 15, 30, 60, 120, 240, 480, 960 and 1920 ng/ml. The capacitation-dependency of the acrosome reaction-inducing activity of rhZP3 was assessed in the swim-up fractions of four ejaculates from four different donors. Capacitation times included: 0 (immediately post-swim-up), 1, 4, 8, 12 and 24 hours. After the capacitation period, rhZP3 was added to the sperm suspension at a final concentration of 30 ng/ml.
In another set of experiments, three different ejaculates were used to compare the effects of the rhZP3 (tested at 500 ng/ml) with those of solubilized zonae pellucidae and the calcium ionophore. Further, the induction of the acrosome reaction was assessed in parallel with FITC-PSA and transmission electron microscopy. The goal of these studies was to compare the morphological features of the acrosome reaction between agonists and also between the agonist-induced and basal exocytosis rates.

In data set [3] the test system is sperm. Description: Sperm motion parameters by computer analyzer. The settings on record: data not shown.
Data set [4] concerns Gi proteins. The data set is described as follows: Pertussis toxin pre-incubation before rhZP3-induced acrosome reaction. The class given is cell-based, human. On the procedure:
Experiment 3: Acrosome reaction-inducing activity of rhZP3: effect on Gi proteins—Motile sperm fractions were obtained from the ejaculates of three donors and incubated under capacitating conditions. In each experiment, the test aliquot was pre-incubated with pertussis toxin (100 ng/ml final concentration) for 4 hours followed by incubation with rhZP3 (500 ng/ml). A control aliquot was incubated in culture medium alone for 4 hours and then treated with rhZP3 at the same dose. After 30 min exposure to rhZP3 or control conditions, sperm were assayed for acrosome reaction using FITC-PSA.

Consider `CNc1ccc2oc(C[C@H]3O[C@@]4(CC[C@H]3C)O[C@H]([C@H](C)C(=O)c3ccc[nH]3)[C@H](C)C[C@H]4C)nc2c1C(=O)O` [Calcium ionophore, A23187, reference compound], for which the “% acrosome reacted-sperm” value in data set [1] (4 h capacitation, 30 min) came to 22.5%. Further, the “% sperm viability” value in data set [1] is reported as 96.5 (2.0) %. Moreover, the “live, acrosome reacted sperm” value in data set [2] (rhZP3 30 ng/ml, 3 h capacitation, 30 min exposure) was found to be 19.4±4.1%. The “induction of the acrosome reaction” value in data set [2] (rhZP3 500 ng/ml, solubilized zona 4 zona/10 μl) is 34.7±5.2%. Besides, in data set [3], the “sperm motion parameters, treatment versus control” value is “not significantly different”.
Turning to pertussis toxin, the “effect on basal rate of spontaneous acrosomal exocytosis” value in data set [4] (pertussis toxin 100 ng/ml) is “did not modify the basal rate of spontaneous acrosomal exocytosis”. Moreover, the “effect on induction of the acrosome reaction by rhZP3” value in data set [4] (pertussis toxin 100 ng/ml 4 h, then rhZP3 500 ng/ml 30 min) is listed as “inhibited the induction of the acrosome reaction by rhZP3”. Moreover, the “sperm motion parameters, treatment versus control” value in data set [3] was “not significantly different”.
